{
  "source": "patent US20140357512A1",
  "about": "“HISTONE DEACETYLASE (HDAC) BIOMARKERS IN MULTIPLE MYELOMA” (priority 2013, published 2014)",
  "system": "human myeloma cell line MM.1S",
  "assay": "SILAC acetylated-lysine peptide profiling, HDAC inhibitor vs DMSO (light/heavy ratio)",
  "type": "cell-based",
  "excerpt": "An embodiment of the invention comprises utilizing the SILAC method in order to quantitate changes in protein expression between two or more populations of cells. The SILAC method is a technique based on mass spectrometry that detects differences in protein abundance among samples using non-radioactive isotopic labeling. The SILAC method is known in the art, and described in detail in Ong et al., “Stable Isotope Labeling by Amino Acids in Cell Culture, SILAC, as a Simple and Accurate Approach to Expression Proteomics”, Molecular & Cellular Proteomics, vol. 1, pp. 376-386 (2002), which is incorporated herein by reference in its entirety.\nBriefly, the SILAC method involves growing two populations of cells in cell culture. The first population of cells is grown in growth media containing normal amino acids (“normal media”). The second population of cells is grown in media lacking a standard essential amino acid (such as lysine), but is then supplemented with a non-radioactive, isotopically labeled form of that essential amino acid (such as lysine labeled with ^13C atoms, rather than normal ^12C atoms), which is called “heavy media”. When the two populations of cells are each growing in the medium, they incorporate the amino acids into all of their proteins. The growth of cells maintained in the heavy media is no different from that in normal media. All peptides containing the heavy amino acids are heavier than their normal counterparts. The cells from each of the two populations of cells are lysed. The lysates from each of the two cell populations are then combined. The combined cell lysates are then analyzed by mass spectrometry. Pairs of chemically identical peptides of different stable isotope composition can be differentiated in a mass spectrometer due to their difference in mass. The ratio of peak intensities in the mass spectrum for such peptide pairs reflects the abundance ratio for the two proteins.\nThis example describes SILAC studies that were performed to compare the effects of three different HDAC inhibitors (Compound A, Compound B, and tubastatin A) to a control on a human multiple myeloma cell line. The HDAC inhibitors were also compared amongst themselves to determine differences in their effects.\nA human myeloma cell line MM.1S was grown using either ^12C (light) or ^13C (heavy) lysine containing culture medium. The “heavy” cells were treated with DMSO as the control, and the “light” cells were treated with a single HDAC inhibitor at 37° C. for 6 hours. The heavy and light cells were lysed, and the lysates were mixed in 1:1 ratio and digested with the protease trypsin. The acetylated lysine containing peptides (due to the action of the HDAC inhibitor) in the digested peptide pool were captured by a non-specific anti-acetylated lysine antibody cocktail (the antibodies identify both light and heavy acetylated peptides), and subjected to mass spectrometry analysis in order to identify thousands of individual peptides.\nThousands of peptides were identified in pairs (^12C and ^13C) due to their known mass differences. The amino acid sequence and quantitative ratio (Light/Heavy) of a given peptide in two differentially treated cell lysates were then determined and annotated with their possible protein (gene) sources.\nAs stated above, three HDAC inhibitors (Compound A, Compound B, and Tubastatin A) were used. Thus, the SILAC method was performed three times, with a different HDAC inhibitor compared to a control each time. Accordingly, there are three pairs of quantitative data in the table below, i.e., Compound A:DMSO, Compound B:DMSO, and Tubastatin A:DMSO. A cut-off of 1.30 fold of change (increase or decrease) was then used to determine “changed” or “+” in the table, and any peptides with a fold of change less than 1.3 fold were determined to be “unchanged” or “0” in the table. Those peptides that were not identified were marked as “NA” in the table. […]",
  "data": [
    {"smiles": "O=C(NO)c1cnc(NC2(c3cccc(F)c3)CCCCC2)nc1", "note": "[Compound B, 2-((1-(3-fluorophenyl)cyclohexyl)amino)-N-hydroxypyrimidine-5-carboxamide]", "values": [
      {"measurement": "light to heavy ratio (L/H ratio) of acetylated peptide SFLLK(ac)DSETSQR (SEQ ID NO: 567)", "setting": "Serine hydroxymethyltransferase mitochondrial [474], gene SHMT2, inhibitor:DMSO", "value": 0.00, "unit": "log 2"},
      {"measurement": "light to heavy ratio (L/H ratio) of acetylated peptide SGLLDK(ac)WK (SEQ ID NO: 602)", "setting": "Signal peptidase complex subunit 2 [38], gene LOC653566, SPCS2, inhibitor:DMSO", "value": 0.00, "unit": "log 2"},
      {"measurement": "light to heavy ratio (L/H ratio) of acetylated peptide SNYK(ac)MMFVK (SEQ ID NO: 368)", "setting": "Small acidic protein [174], C11orf58, drug:DMSO", "value": "−0.45", "unit": "log 2"},
      {"measurement": "light to heavy ratio (L/H ratio) of acetylated peptide YDDPEVQK(ac)DIK (SEQ ID NO: 578)", "setting": "Stress-70 protein mitochondrial [135], gene HSPA9, inhibitor:DMSO", "value": 0.00, "unit": "log 2"},
      {"measurement": "light to heavy ratio (L/H ratio) of acetylated peptide […](ac)SLAEHR (SEQ ID NO: 534)", "setting": "Stress-induced-phosphoprotein 1 [325], gene STIP1, inhibitor:DMSO", "value": 0.00, "unit": "log 2"},
      {"measurement": "light to heavy ratio (L/H ratio) of acetylated peptide, log 2 scale", "setting": "TAMK(ac)YNLGLDLR (SEQ ID NO: 158), Glutamate dehydrogenase 1 mitochondrial [527], GLUD1", "value": 0.00},
      {"measurement": "L/H ratio of acetylated peptide", "setting": "TFYQMYDK(ac)GLVYR (SEQ ID NO: 407), Isoleucyl-tRNA synthetase mitochondrial [233], IARS2", "value": "−0.56", "unit": "log 2"},
      {"measurement": "light to heavy ratio (L/H ratio) of acetylated peptide, log 2 scale", "setting": "TLQYK(ac)[…] (SEQ ID NO: 252), 40S ribosomal protein S16 [50], RPS16", "value": 0.00},
      {"measurement": "L/H ratio of acetylated peptide", "setting": "TPSVGK(ac)[…] (SEQ ID NO: 418), Isoform Long of Antigen KI-67 [2264], MKI67", "value": "−0.86", "unit": "log 2"},
      {"measurement": "light to heavy ratio (L/H ratio) of acetylated peptide, log 2 scale", "setting": "TPVIVTLK(ac)ENER (SEQ ID NO: 176), Hypoxia up-regulated protein 1 [75], HYOU1", "value": 0.00},
      {"measurement": "L/H ratio of acetylated peptide", "setting": "TTHLIAK(ac)EEMIHNLQ (SEQ ID NO: 435), 26S proteasome non-ATPase regulatory subunit 12 [448], PSMD12", "value": "−0.38", "unit": "log 2"},
      {"measurement": "L/H ratio of acetylated peptide", "setting": "TTTCSK(ac)LAYYYQR (SEQ ID NO: 451), Signal recognition particle 54 kDa protein [120], SRP54", "value": 0.40, "unit": "log 2"},
      {"measurement": "L/H ratio of acetylated peptide […](ac)YVPR (SEQ ID NO: 109)", "setting": "TUBB2C [58], log 2 scale, drug vs DMSO", "value": 0.00},
      {"measurement": "L/H ratio of acetylated peptide ILAEGGGAK(ac)FK (SEQ ID NO: 110)", "setting": "TUFM [91], log 2 scale, drug vs DMSO", "value": 0.00},
      {"measurement": "L/H ratio of acetylated peptide", "setting": "TVSK(ac)[…] (SEQ ID NO: 428), 6-phosphogluconate dehydrogenase decarboxylating [38], PGD", "value": 0.74, "unit": "log 2"},
      {"measurement": "L/H ratio of acetylated peptide QIESK(ac)[…] (SEQ ID NO: 111)", "setting": "TXN [8], log 2 scale, drug vs DMSO", "value": 0.00},
      {"measurement": "L/H ratio of acetylated peptide VYVAK(ac)[…] (SEQ ID NO: 113)", "setting": "TXNDC5, MUTED, MUTED-TXNDC5 [118], log 2 scale, drug vs DMSO", "value": 0.00},
      {"measurement": "L/H ratio of acetylated peptide […](ac)YQGPR (SEQ ID NO: 112)", "setting": "TXNDC5, MUTED, MUTED-TXNDC5 [150], log 2 scale, drug vs DMSO", "value": 0.00},
      {"measurement": "light to heavy ratio (L/H ratio) of acetylated peptide, log 2 scale", "setting": "TYGEIFEK(ac)FHPIR (SEQ ID NO: 188), NADH dehydrogenase [ubiquinone] 1 subunit C2 [114], NDUFC2", "value": 0.00},
      {"measurement": "light to heavy ratio (L/H ratio) of acetylated peptide NICSK(ac)YSVR (SEQ ID NO: 256)", "setting": "Thioredoxin domain-containing protein 5 [390], TXNDC5, MUTED, MUTED-TXNDC5, drug:DMSO", "value": 0.00, "unit": "log 2"},
      {"measurement": "light to heavy ratio (L/H ratio), log 2 scale, acetylated peptide […](ac)YGK (SEQ ID NO: 817)", "setting": "Transitional endoplasmic reticulum ATPase [109], gene VCP, drug:DMSO", "value": 0.00},
      {"measurement": "light to heavy ratio (L/H ratio) of acetylated peptide SEIINSK(ac)NFDR (SEQ ID NO: 525)", "setting": "Transmembrane protein 43 [159], gene TMEM43, inhibitor:DMSO", "value": 0.00, "unit": "log 2"},
      {"measurement": "light to heavy ratio (L/H ratio) of acetylated peptide VK(ac)[…] (SEQ ID NO: 562)", "setting": "Tricarboxylate transport protein mitochondrial [149], gene SLC25A1, inhibitor:DMSO", "value": 0.00, "unit": "log 2"},
      {"measurement": "light to heavy ratio (L/H ratio), log 2 scale, acetylated peptide FGAPQK(ac)DVK (SEQ ID NO: 788)", "setting": "Trifunctional enzyme subunit alpha mitochondrial [359], gene HADHA, drug:DMSO", "value": 0.00},
      {"measurement": "light to heavy ratio (L/H ratio), log 2 scale, acetylated peptide ILQEGVDPK(ac)K (SEQ ID NO: 789)", "setting": "Trifunctional enzyme subunit alpha mitochondrial [569], gene HADHA, drug:DMSO", "value": 0.00},
      {"measurement": "light to heavy ratio (L/H ratio) of acetylated peptide VPGK(ac)DTVTK (SEQ ID NO: 308)", "setting": "Trifunctional enzyme subunit beta mitochondrial [272], HADHB, drug:DMSO", "value": 0.00, "unit": "log 2"},
      {"measurement": "L/H ratio of acetylated peptide VVVTK(ac)YCDPDSYHR (SEQ ID NO: 114)", "setting": "U2AF2 [462], log 2 scale, drug vs DMSO", "value": 0.00},
      {"measurement": "L/H ratio of acetylated peptide", "setting": "VAHLALK(ac)HR (SEQ ID NO: 436), Isoform Rpn10A of 26S proteasome non-ATPase regulatory subunit 4 [9]8, PSMD4", "value": "−0.57", "unit": "log 2"},
      {"measurement": "L/H ratio of acetylated peptide FGIAAK(ac)[…] (SEQ ID NO: 115)", "setting": "VDAC1 [224], log 2 scale, drug vs DMSO", "value": 0.00},
      {"measurement": "L/H ratio of acetylated peptide YK(ac)[…] (SEQ ID NO: 116)", "setting": "VDAC2 [63], log 2 scale, drug vs DMSO", "value": 0.00},
      {"measurement": "L/H ratio of acetylated peptide (ac)[…](ac)AAK (SEQ ID NO: 6)", "setting": "VDAC3 [12], log 2 scale, drug vs DMSO", "value": "−0.63"},
      {"measurement": "L/H ratio of acetylated peptide YK(ac)[…] (SEQ ID NO: 117)", "setting": "VDAC3 [63], log 2 scale, drug vs DMSO", "value": 0.00}
    ]}
  ]
}
